# Test results as given in ChEMBL document CHEMBL1201862, “PubChem BioAssay data set” (2004).
#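 Protocol summary: plate cells (96-well), add compound at 5 concentrations, incubate 48 h, interpolate endpoints linearly. GI50 is the concentration that inhibits growth by half.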 The source made the active and inactive calls. Cut-off read from the data, not from the text of the source: active = GI50 up to about 1.1 µM and inactive = higher.
# Assays:
# Assay in all cases: DTP human tumour cell line panel, 48 h
# HCT-116 = test system: HCT-116
# SF-268 = test system: SF-268
# SR = test system: SR
# MOLT-4 = test system: MOLT-4
# HOP-92 = test system: HOP-92
# CAKI-1 = test system: CAKI-1
# SF-539 = test system: SF-539
# RPMI-8226 = test system: RPMI-8226
# SK-MEL-2 = test system: SK-MEL-2
# OVCAR-8 = test system: OVCAR-8
# HL-60 = test system: HL-60
# UACC-257 = test system: UACC-257
# SK-OV-3 = test system: SK-OV-3
# Hs-578T = test system: Hs-578T
# NCI-H522 = test system: NCI-H522
# HCC 2998 = test system: HCC 2998
# NCI-H460 = test system: NCI-H460
# SF-295 = test system: SF-295
# A498 = test system: A498
# OVCAR-3 = test system: OVCAR-3
# A549 = test system: A549
# SW-620 = test system: SW-620
# DU-145 = test system: DU-145
# CCRF-CEM = test system: CCRF-CEM
# BT-549 = test system: BT-549
# MDA-MB-231 = test system: MDA-MB-231
# NCI-H226 = test system: NCI-H226
# OVCAR-4 = test system: OVCAR-4
# T47D = test system: T47D
# U-251 = test system: U-251
# NCI/ADR-RES = test system: NCI/ADR-RES
# LOX IMVI = test system: LOX IMVI
# ACHN = test system: ACHN
# PC-3 = test system: PC-3
# UO-31 = test system: UO-31
# HT-29 = test system: HT-29
# OVCAR-5 = test system: OVCAR-5
# UACC-62 = test system: UACC-62
# SNB-19 = test system: SNB-19
# HCT-15 = test system: HCT-15
# COLO 205 = test system: COLO 205
# K562 = test system: K562
# SK-MEL-28 = test system: SK-MEL-28
# MDA-MB-435 = test system: MDA-MB-435
# M14 = test system: M14
# EKVX = test system: EKVX
# IGROV-1 = test system: IGROV-1
# 786-0 = test system: 786-0
# SK-MEL-5 = test system: SK-MEL-5
# SN12C = test system: SN12C
# RXF 393 = test system: RXF 393
# NCI-H23 = test system: NCI-H23
# KM12 = test system: KM12
# MDA-N = test system: MDA-N
# MCF7 = test system: MCF7
# HOP-62 = test system: HOP-62
# SNB-75 = test system: SNB-75
# Malme-3M = test system: Malme-3M
# TK-10 = test system: TK-10
smiles,measurement,setting,value
c1ccc(/C(=N\Nc2nc3ccccc3s2)c2ccccn2)cc1,GI50,HCT-116,1.88 µM (inactive)
same,GI50,SF-268,3.13 µM (inactive)
same,GI50,SR,0.891 µM (active)
same,GI50,MOLT-4,0.346 µM (active)
same,GI50,HOP-92,7.31 µM (inactive)
same,GI50,CAKI-1,2.72 µM (inactive)
same,GI50,SF-539,7 µM (inactive)
same,GI50,RPMI-8226,1.77 µM (inactive)
same,GI50,SK-MEL-2,4.08 µM (inactive)
same,GI50,OVCAR-8,2.52 µM (inactive)
same,GI50,HL-60,0.792 µM (active)
same,GI50,UACC-257,2.92 µM (inactive)
same,GI50,SK-OV-3,8.28 µM (inactive)
same,GI50,Hs-578T,13.2 µM (inactive)
same,GI50,NCI-H522,2.71 µM (inactive)
same,GI50,HCC 2998,14.4 µM (inactive)
same,GI50,NCI-H460,1.97 µM (inactive)
same,GI50,SF-295,5.19 µM (inactive)
same,GI50,A498,6.15 µM (inactive)
same,GI50,OVCAR-3,0.0948 µM (active)
same,GI50,A549,3.09 µM (inactive)
same,GI50,SW-620,3.18 µM (inactive)
same,GI50,DU-145,3.75 µM (inactive)
same,GI50,CCRF-CEM,0.0603 µM (active)
same,GI50,BT-549,18.8 µM (inactive)
same,GI50,MDA-MB-231,4.74 µM (inactive)
same,GI50,NCI-H226,3.87 µM (inactive)
same,GI50,OVCAR-4,2.66 µM (inactive)
same,GI50,T47D,< 0.0248 µM (active)
same,GI50,U-251,2.84 µM (inactive)
same,GI50,NCI/ADR-RES,2.7 µM (inactive)
same,GI50,LOX IMVI,4.04 µM (inactive)
same,GI50,ACHN,0.815 µM (active)
same,GI50,PC-3,5.7 µM (inactive)
same,GI50,UO-31,0.0843 µM (active)
same,GI50,HT-29,1.87 µM (inactive)
same,GI50,OVCAR-5,3.91 µM (inactive)
same,GI50,UACC-62,3.66 µM (inactive)
same,GI50,SNB-19,5.77 µM (inactive)
same,GI50,HCT-15,0.622 µM
same,GI50,COLO 205,1.37 µM (inactive)
same,GI50,K562,1.72 µM (inactive)
same,GI50,SK-MEL-28,8.13 µM (inactive)
same,GI50,MDA-MB-435,5.68 µM (inactive)
same,GI50,M14,3.14 µM (inactive)
same,GI50,EKVX,0.41 µM (active)
same,GI50,IGROV-1,4.69 µM (inactive)
same,GI50,786-0,2.36 µM (inactive)
same,GI50,SK-MEL-5,2.49 µM (inactive)
same,GI50,SN12C,2.79 µM (inactive)
same,GI50,RXF 393,4.3 µM (inactive)
same,GI50,NCI-H23,6.82 µM (inactive)
same,GI50,KM12,3.56 µM (inactive)
same,GI50,MDA-N,4.94 µM (inactive)
same,GI50,MCF7,0.317 µM (active)
same,GI50,HOP-62,6.47 µM (inactive)
same,GI50,SNB-75,19.7 µM (inactive)
same,GI50,Malme-3M,0.649 µM (active)
same,GI50,TK-10,1.38 µM (inactive)
C=CCN(c1cc(OCc2ccccc2)c2[nH]cc(C)c2c1)S(C)(=O)=O,GI50,HCT-116,66.4 µM (inactive)
same,GI50,SF-268,46.7 µM (inactive)
same,GI50,SR,> 100 µM (inactive)
same,GI50,MOLT-4,33.5 µM (inactive)
same,GI50,HOP-92,44 µM (inactive)
same,GI50,CAKI-1,61.7 µM (inactive)
same,GI50,SF-539,56.2 µM (inactive)
same,GI50,RPMI-8226,39.4 µM (inactive)
same,GI50,SK-MEL-2,41.7 µM (inactive)
same,GI50,OVCAR-8,61.9 µM (inactive)
same,GI50,HL-60,> 100 µM (inactive)
same,GI50,UACC-257,52.7 µM (inactive)
same,GI50,SK-OV-3,37.3 µM (inactive)
same,GI50,Hs-578T,45.8 µM (inactive)
same,GI50,NCI-H522,37 µM (inactive)
same,GI50,HCC 2998,> 100 µM (inactive)
same,GI50,NCI-H460,76.2 µM (inactive)
same,GI50,SF-295,31.5 µM (inactive)
same,GI50,A498,29.2 µM (inactive)
same,GI50,OVCAR-3,25 µM (inactive)
same,GI50,A549,34.7 µM (inactive)
same,GI50,SW-620,> 100 µM (inactive)
same,GI50,DU-145,40 µM (inactive)
same,GI50,CCRF-CEM,> 100 µM (inactive)
same,GI50,BT-549,> 100 µM (inactive)
same,GI50,MDA-MB-231,44.6 µM (inactive)
same,GI50,NCI-H226,28.7 µM (inactive)
same,GI50,OVCAR-4,34.4 µM (inactive)
same,GI50,T47D,18.8 µM (inactive)
same,GI50,U-251,46.7 µM (inactive)
same,GI50,NCI/ADR-RES,53.1 µM (inactive)
same,GI50,LOX IMVI,> 100 µM (inactive)
same,GI50,ACHN,37.6 µM (inactive)
same,GI50,PC-3,49.4 µM (inactive)
same,GI50,UO-31,41.8 µM (inactive)
same,GI50,HT-29,60.8 µM (inactive)
same,GI50,OVCAR-5,79.8 µM (inactive)
same,GI50,UACC-62,22.8 µM (inactive)
same,GI50,SNB-19,57.9 µM (inactive)
same,GI50,HCT-15,> 100 µM
same,GI50,COLO 205,> 100 µM (inactive)
same,GI50,K562,> 100 µM (inactive)
same,GI50,SK-MEL-28,48.8 µM (inactive)
same,GI50,MDA-MB-435,72.1 µM (inactive)
same,GI50,M14,> 100 µM (inactive)
same,GI50,EKVX,24.2 µM (inactive)
same,GI50,IGROV-1,88.7 µM (inactive)
same,GI50,786-0,33.8 µM (inactive)
same,GI50,SK-MEL-5,52.4 µM (inactive)
same,GI50,SN12C,51.3 µM (inactive)
same,GI50,RXF 393,23.1 µM (inactive)
same,GI50,NCI-H23,87.1 µM (inactive)
same,GI50,KM12,51.4 µM (inactive)
same,GI50,MDA-N,89.7 µM (inactive)
same,GI50,MCF7,59.7 µM (inactive)
same,GI50,HOP-62,39 µM (inactive)
same,GI50,SNB-75,19.8 µM (inactive)
same,GI50,Malme-3M,27.5 µM (inactive)
same,GI50,TK-10,92.3 µM (inactive)
CCOP1(=O)CC(C)=C(Cl)C(O)C1 (configuration not stated),GI50,HCT-116,> 100 µM (inactive)
same,GI50,SF-268,> 100 µM (inactive)
same,GI50,SR,> 100 µM (inactive)
same,GI50,MOLT-4,> 100 µM (inactive)
same,GI50,HOP-92,> 100 µM (inactive)
same,GI50,CAKI-1,> 100 µM (inactive)
same,GI50,SF-539,> 100 µM (inactive)
same,GI50,RPMI-8226,> 100 µM (inactive)
same,GI50,SK-MEL-2,> 100 µM (inactive)
same,GI50,OVCAR-8,> 100 µM (inactive)
same,GI50,HL-60,> 100 µM (inactive)
same,GI50,UACC-257,> 100 µM (inactive)
same,GI50,SK-OV-3,> 100 µM (inactive)
same,GI50,Hs-578T,> 100 µM (inactive)
same,GI50,NCI-H522,> 100 µM (inactive)
same,GI50,HCC 2998,> 100 µM (inactive)
same,GI50,NCI-H460,> 100 µM (inactive)
same,GI50,SF-295,> 100 µM (inactive)
same,GI50,A498,> 100 µM (inactive)
same,GI50,OVCAR-3,> 100 µM (inactive)
same,GI50,A549,> 100 µM (inactive)
same,GI50,SW-620,> 100 µM (inactive)
same,GI50,DU-145,> 100 µM (inactive)
same,GI50,CCRF-CEM,> 100 µM (inactive)
same,GI50,BT-549,> 100 µM (inactive)
same,GI50,MDA-MB-231,> 100 µM (inactive)
same,GI50,NCI-H226,> 100 µM (inactive)
same,GI50,OVCAR-4,> 100 µM (inactive)
same,GI50,T47D,> 100 µM (inactive)
same,GI50,U-251,> 100 µM (inactive)
same,GI50,NCI/ADR-RES,> 100 µM (inactive)
same,GI50,LOX IMVI,> 100 µM (inactive)
same,GI50,ACHN,> 100 µM (inactive)
same,GI50,PC-3,> 100 µM (inactive)
same,GI50,UO-31,> 100 µM (inactive)
same,GI50,HT-29,> 100 µM (inactive)
same,GI50,OVCAR-5,> 100 µM (inactive)
same,GI50,UACC-62,> 100 µM (inactive)
same,GI50,SNB-19,> 100 µM (inactive)
same,GI50,HCT-15,> 100 µM
same,GI50,COLO 205,> 100 µM (inactive)
same,GI50,K562,> 100 µM (inactive)
same,GI50,SK-MEL-28,> 100 µM (inactive)
same,GI50,MDA-MB-435,> 100 µM (inactive)
same,GI50,M14,> 100 µM (inactive)
same,GI50,EKVX,> 100 µM (inactive)
same,GI50,IGROV-1,> 100 µM (inactive)
same,GI50,786-0,> 100 µM (inactive)
same,GI50,SK-MEL-5,> 100 µM (inactive)
same,GI50,SN12C,> 100 µM (inactive)
same,GI50,RXF 393,> 100 µM (inactive)
same,GI50,NCI-H23,> 100 µM (inactive)
same,GI50,KM12,> 100 µM (inactive)
same,GI50,MDA-N,> 100 µM (inactive)
same,GI50,MCF7,> 100 µM (inactive)
same,GI50,HOP-62,> 100 µM (inactive)
same,GI50,SNB-75,40.3 µM (inactive)
same,GI50,Malme-3M,> 100 µM (inactive)
same,GI50,TK-10,> 100 µM (inactive)
